Counter-ions that a name gives are not always drawn. Like-named read-outs stand apart in the source and are kept apart here.
Columns and labels:
[1] = test system: HIV-1 replication in human PBM cells; test: microbe, parasite or virus in culture; assay type: cell-based
Method: Cells and viruses. […] Antimicrobial Agents Chemother 1992;36(11): 2423-2431.
Cell pellets were washed, centrifuged, lysed and the proviral DNA extracted as previously described. Cytotoxicity of the compounds was determined using the Promega Cell Titer 96 dye uptake assay (Madison, Wis.) in 1-2 day PHA-stimulated PBM cells after 5 days in culture. The median effective concentration (EC50) and inhibitory concentration (IC50) were derived from the computer-generated median effect plot of the dose-effect data, as described previously.

[2] = test system: recombinant HIV-1 virus isolates; assay type: cell-based
Description: The aim of the study was to determine the potency of the inhibitory effect of a new generation of NRTIs on Multi Drug Resistant isolates and to compare it with their effect on wild-type HIV-1 isolates. All recombinant viruses were taken from the VIRCO repository of phenotypically and genotypically characterized virus isolates. Hirsch et al. Antiretroviral Drug Resistance Testing in Adults with HIV Infection. JAMA; 1998: 79(24) 1984-1991. See also Pauwels et al. Comprehensive HIV drug Resistance monitoring using rapid, high-throughput phenotypic and genotypic assays with correlative data analysis. Antiviral Therapy, 1998: 3: 35 Abstract 51.
Phenotypic drug susceptibility determination of recombinant virus isolates is described in Hertogs et al. A Rapid Method for Simultaneous Detection of Phentypic Resistance to Inhibitors of Protease and Reverse Transcriptase in Recombinant HIV-1 Isolates from Patients Treated with Antiretroviral Drugs. Antimicrob. Agents Chemother. 1998; 42(2): 269-276. The basic principle of the Antivirogram® technology is the construction of chimeric HIV-1 strains composed of the protease (PR) and reverse transcriptase (RT) gene sequences which are isolated and amplified from patient viral RNA. Amplicons are subsequently transfected into CD4+T cells together with a standard laboratory isogenic (HXB2) HIV-1 DNA construct from which the PR/RT gene sequences were deleted. After homologous recombination, new viruses whose diversity reflects the original population amplified from the plasma are produced at high level from these cells.
The virus infectivity (CCID50) is determined by an end-point dilution method. The titer is calculated from the degree of infection, measured by the intensity of reporter-gene signal as generated by serial dilutions of the virus shock. The chimeric (clinical isolates and wild-type reference) viruses are then analyzed for their phenotypic sensitivity (i.e. susceptibility) to the different PR and RT-inhibitors in an automated reporter gene-based assay using serial dilutions of the compound. The standardisation of the Antivirogram®n assay allows for simultaneous testing of all clinically approved drugs in one 384-well microtiter plate. The experimental drugs are included in separate plates. Each plate contains multiple replicates of mock-infected wells, virus-infection control wells and blank (medium-only) well. All plates are tested in duplicate. 50% Inhibitory concentrations are calculated based on reporter signals obtained through optical reading of 384-well plates containing serial dilutions of compounds, a normalised quantity of virus and by taking into account all relevant control wells. Approval (or not) is done according to critical ranges and settings as described in the corresponding VIRCO Standard Operating Procedure.
A more detailed description of the protocol is as follows. Samples were stored frozen. […] To confirm the genotypic pattern, genotyping (ABI-sequencing) was performed after recombination and culture of the laboratory strains by analysis of cell viability, calculation of results (dose-response curves, IC50 values), and reporting of data.

## CC(C)(C)NC(=O)[C@@H]1CN(Cc2cccnc2)CCN1C[C@@H](O)C[C@@H](Cc1ccccc1)C(=O)N[C@H]1c2ccccc2C[C@H]1O [Indinavir, {1(1,S,2R),5(S)]-2,3,5-trideoxy-N-(2,3-dihydro-2-hydroxy-1H-inden-1-yl)-5-[2-[[(1,1-dimethylethyl)amino]carbonyl]4-(3-pyridinylmethyl)-1-piperazinyl]-2-(phenylmethyl)-D-erythro-pentoamide sulfate]
[1]
  m ± SE (slope of median effect plot): 0.86 ± 0.17
[1]; Human immunodeficiency virus 1, PBMC
  EC90: 19 nM
[1]; Human immunodeficiency virus 1, PBMC, 144 h, concentration 0.001 mM, day 6, read-out: Inhibition %
  inhibition at 1 µM: 29.9%
[1]; Human immunodeficiency virus 1, PBMC, 144 h, concentration 0.01 mM, day 6, read-out: Inhibition %
  inhibition at 10 µM: 88.7%
[1]; Human immunodeficiency virus 1, PBMC, Table 3A, human PBMC
  EC50: 1.5 nM

## Nc1nc(N)c2ncn([C@H]3CO[C@@H](CO)O3)c2n1 [DAPD, β-D-dioxolanyl-2,6-diaminopurine]
[1]; Table 3, human PBMC
  EC50: 1810 nM
  m ± SE (slope of median effect plot): 1.40 ± 0.14
[1]; Table 3, human PBMC, read-out: EC90
  EC90: 8680 nM

## Nc1ccn([C@@H]2CS[C@H](CO)O2)c(=O)n1 [3TC, (−)-β-2′,3′-dideoxy-3′-thiacytidine]
[1]; Human immunodeficiency virus 1, PBMC, Table 2, human PBMC
  EC50: 6.7 nM
[1]; Human immunodeficiency virus 1, PBMC, Table 2, human PBMC, read-out: EC90
  EC90: 51 nM
[1]; Table 2, human PBMC
  m ± SE (slope of median effect plot): 1.08 ± 0.15
[2]; RT genotype D67D/N, K70R, M184V, G333E
  fold Resistance: >99
[2]; RT genotype D67N, K70R, K219Q/K, 181C/Y
  fold Resistance: 3.7
[2]; RT genotype K70R, K219Q
  fold Resistance: 1
[2]; RT genotype M41L, D67N, K70R, K103N, L210W, T215Y, K219N/K
  fold Resistance: 8.25
[2]; RT genotype M41L, L210L, T215Y, Y181C/Y, M184M/V
  fold Resistance: 3
[2]; RT genotype M41L, L210W, T215Y
  fold Resistance: 0.4
[2]; RT genotype M41L, T69S-V-T, L210W, T215Y, G333E
  fold Resistance: >65
[2]; RT genotype M41L, T215Y, M184V
  fold Resistance: >99
[2]; RT genotype T69G, Q151M, M184V/M
  fold Resistance: >65
[2]; RT genotype T69I, K70R, Q151M, M184V
  fold Resistance: >65
[2]; RT genotype T69S-E, M184I, T215Y
  fold Resistance: >65
[2]; RT genotype T215Y
  fold Resistance: 1.5
[2]; recombinant isolate, RT genotype K70R
  fold Resistance: 1
